Square brackets hold non-standard residues; d marks the D form. Ends that are not written are not given here. Dip = N[C@H](C(=O)O)C(c1ccccc1)c1ccccc1
Columns and labels:
HEPG2 = assay: In vitro cytotoxicity, MTT assay; assay type: cell-based; details: HEPG2 human hepatocellular carcinoma
From the text: (§1) JM1, a rat hepatocellular carcinoma, HEPG2 and BEL7402, both human hepatocellular carcinomas, were kindly provided by Dr. Pål-Dag Line, Director, Department of Transplantation Medicine, Oslo University Hospital. B16F1 (ATCC, CRL-6323), a murine skin malignant melanoma, MDA-MB-435S (HTB-129), a human malignant melanoma originating from a breast metastases, Malme-3M (HTB-64), a human malignant melanoma derived from a lung metastases, MRC-5 (ATCC, CCL-171), normal human lung fibroblasts, SK-N-AS (ATCC, CRL-2137), a human neuroblastoma cell line derived from a bone marrow metastases, HT-29 (ATCC, HTB-38), a human colorectal adenocarcinoma and HUV-EC-C (ATCC, CRL-1730), a human vascular endothelium cell line, were all purchased from the American Type Culture Collection (ATCC-LGC Standards, Rockville, MD, USA). HaCat, a human keratinocyte cell line, was kindly provided by Dr. Ingvild Pettersen, Department of Host Microbe Interactions, University of Tromsø. A375, a malignant melanoma cell line of human origin, was purchased from Public Health England (PHE Culture Conditions, Porton, Down, Salisbury, UK). JM1, A375, BEL7402, HEPG2 and B16F1 were all maintained in culture media consisting of DMEM (high glucose), while SK-N-AS, HT-29 and MDA-MB-435S were cultured in an RPMI-1640 medium containing 2 mM L-glutamine and sodium bicarbonate. Malme-3M was cultured in RPMI-1640, containing 4 mM L-glutamine and 20% FBS (fetal bovine serum). Lastly, the three non-malignant cell lines, HUV-EC-C, MRC-5 and HaCat, were cultured, respectively, using the EGM-2 BulletKit (Lonza, MA), containing basal media and growth factors, MEM (normal glucose) also containing 2 mM L-glutamine and 1% non-essential amino acids and DMEM (normal glucose) containing 2 mM L-glutamine. All media were (if not specified otherwise) supplemented with 10% FBS, with the exception of the EGM-2 BulletKit, which is delivered with an aliquot of 10 ml FBS to yield a final concentration of 2% FBS in solution. […]

MDA-MB-435S = assay: In vitro cytotoxicity, MTT assay; assay type: cell-based; details: MDA-MB-435S human malignant melanoma
From the text: as §1

remaining cell lines = assay: In vitro cytotoxicity, MTT assay; assay type: cell-based
From the text: as §1

[1] = tested on: Human osteosarcoma U2OS cells; assay: Transmission electron microscopy of U2OS cells after LTX-315; assay type: cell-based
Method: Cytoplasmic membrane disintegration was carried out as described in FORVEILLE S. et al., Cell Cycle 2015, 14: 3506-12.
Human osteosarcoma U2OS cells were cultured in Glutamax-containing DMEM medium supplemented with 10% fetal calf serum (FCS), and […] HEPES buffer. Cells were grown at 37° C. in a humidified incubator under a 5% CO2 atmosphere.
For ultrastructural studies, human osteosarcoma U2OS cells were fixed in 1.6% glutaraldehyde (v/v in 0.1 M phosphate buffer) for 1 h, collected by scraping, centrifuged and the pellet was post-fixed 1% osmium tetroxide (w/v in 0.1 M phosphate buffer). Following dehydration through a graded ethanol series, cells were embedded in Epon™ 812 and ultrathin sections were stained with standard uranyl acetate and lead citrate. Images were taken using a Tecnai 12 electron microscope (FEI, Eindhoven, the Netherlands).

A375 cells = assay: Release of ATP (luciferase bioluminescence); assay type: cell-based, human; details: 5 minutes, different concentrations
Method: The supernatant of LTX-315-treated A375 cells was analyzed using an Enliten ATP luciferase assay kit (Promega, USA). Cells were then seeded as with an ROS assay, and treated with LTX-315 in different incubation times, from 1 to 15 minutes with two parallels, which was then conducted three times. Negative controls were untreated A375 cells exposed to serum-free media alone. Samples were diluted at 1:50 and 1:100, and analyzed with a Luminoscan RT luminometer according to the manufacturer's protocol.

[2] = tested on: rat transformed mesenchymal stem cell-derived sarcoma (rTMSC); assay: FACS analysis of TILs in rat rTMSC sarcoma model; assay type: in vivo; details: for percentage of T cells / CD8+ cells within the CD3+ T cell population: mean±SD
Method: Pre-cultured rat transformed mesenchymal stem cell-derived sarcoma model cells (rTMSCs) were harvested in serum free RPMI-1640 and 200,000 rTMSCs were subcutaneously inoculated in the right flank into PVG rats on day ÷2 and 20,000 rTMSCs in the opposite flank on day 0. Established tumours (25 mm^2 mean tumour size) were injected intralesionally with LTX-315 (dissolved in sterile H2O with 0.9% NaC ) (n=8) or with vehicle (sterile H2O with 0.9% NaCl) (n=6). Treatment doses of LTX-315, 50 μl at […] (1 mg), were given using a 1 ml syringe (Myjector U-100, Terumo) needle 0.5×16 mm (Fine-Ject; Henke-Sass, Wolf GmbH. Injections were provided daily for three subsequent days. Tumour size was measured three times a week using a caliper and expressed as the area of an ellipse [(maximum dimension/2)×(minimum dimension/2)]. Animals were terminated when the tumor exceeded 400 mm^2.
Single-cell suspensions were prepared from fresh tumour tissue at different time points during the week after LTX-315 treatment. Tumours were gently minced with a razor blade and cut into small pieces (4 mm^2). Tumour tissue was incubated with Liberase TM (Thermolysin Medium; Roche Diagnostics) at a concentration of 0.18 Wünsch units/ml in 10 ml MEM media (Sigma-Aldrich) at 37° C. for 60 min with gentle agitation. The enzymatic digestion was terminated by addition of 2 ml 4° C. FCS (Invitrogen, Thermo Fischer). The cell suspension was filtered through a […] mesh (Cell Strainer; BD), washed in PBS and cells were then directly used for flow cytometric staining.
The mouse monoclonal antibodies against CD4 ([…]) and CD8 ([…]) were isolated from culture supernatants from hybridomas and were kind gifts from the MRC Cellular Immunology Unit, Oxford, UK. They were conjugated at IMB according to standard protocols. Fluorochrome-conjugated mAbs against CD3 (G4.18) was obtained from BD Biosciences, including PerCP Streptavidin. A four-color panel consisting of reagents in FITC/AI488, PE, PerCP Streptavidin and AI647 was applied and analyzed on a FACS Calibur (BD) equipped with the CellQuest software (BD). Dot plot and histogram gates were set using isotype control antibodies.

| Compound | IC50 (HEPG2) | IC50 (MDA-MB-435S) | IC50 (remaining cell lines) | cell morphology after administration (TEM) [1] | ATP in the supernatant (A375 cells) | percentage of T cells ([2]; primary treated lesion) | CD8+ cells within the CD3+ T cell population ([2]; primary tumor of treated rats) | CD8+ cells within the CD3+ T cell population ([2]; secondary tumor of treated rats) | increase of percentage of T cells compared to untreated rats ([2]; secondary tumor tissue) | percentage of T cells ([2]; secondary tumor tissue) |
| --- | --- | --- | --- | --- | --- | --- | --- | --- | --- | --- |
| Cl.Cl.NCCNC(=O)C(CN)(CCCc1ccccc1)CCCc1ccccc1 [LTX-401] | 35.4 µM | 13.5 µM | 19 to 32 µM |  |  |  |  |  |  |  |
| K-K-W-W-K-K-W-Dip-K-NH2 (KKWWKKW[Dip]K-NH2) [LTX-315] |  |  |  | necrotic morphology with disintegration of cytoplasmic membranes | detected in the supernatant as early as after 5 minutes of treatment | 28.35±11.78% | 62.77±13.3 | 45.8±5.4 | 3 fold | 39.83±17.4% |

Reference: US20250002854A1, “METHODS OF GENERATING POPULATIONS OF TUMOUR-INFILTRATING T CELLS” (LYTIX BIOPHARMA AS, priority 2016, published 2025)
